The values below are quoted from earlier work in patent US20060014839A1, “Combination of angiotensin II receptor blocker and beta-blocker for secondary prevention of myocardial infarction” (priority 2002, published 2006).

Each structure is given as a SMILES string.

The test system of the data set is elderly patients with heart failure. The note with it: losartan versus captopril 50 mg t.i.d.

As for `CCCCc1nc(Cl)c(CO)n1Cc1ccc(-c2ccccc2-c2nn[nH]n2)cc1` [losartan], the “tolerability and increase in serum creatinine (primary objective)” value is given as “no significant differences”. Where the note is “722 patients, 49 deaths, preliminary”, the all-cause mortality result is recorded as “statistically significant reduction”.
